Each block holds one compound with its values, some of them ahead of it.
Test: in vitro
Conditions: for Concentration (μM) of analyte PEA, 0 min / Concentration (μM) of analyte PEA, 10 min / Concentration (μM) of analyte PEA, 20 min / Concentration (μM) of analyte PEA, 30 min / Concentration (μM) of analyte PEA, 60 min / % Remaining of Initial (n = 1), 0 min / % Remaining of Initial (n = 1), 10 min / % Remaining of Initial (n = 1), 20 min / % Remaining of Initial (n = 1), 30 min / % Remaining of Initial (n = 1), 60 min / Measured concentration of PEA (analyte) / % Remaining of Initial: 1 μM
Outline: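 Read-out: percent of parent left relative to time zero, measured by electrospray LC-MS/MS against matrix-matched standards. Both the dosed prodrug and PEA were quantified. Compound ran at 1 µM final with cofactor-initiated S9 incubation at 37 °C, sampled over 60 min.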

[1] = male, Sprague-Dawley, rat, 0 min
[2] = male, Sprague-Dawley, rat, 10 min
[3] = male, Sprague-Dawley, rat, 20 min
[4] = male, Sprague-Dawley, rat, 30 min
[5] = male, Sprague-Dawley, rat, 60 min
[6] = male, Sprague-Dawley, rat, s9, 0 h
[7] = male, Sprague-Dawley, rat, s9, 10 min
[8] = male, Sprague-Dawley, rat, s9, 20 min
[9] = male, Sprague-Dawley, rat, s9, 0.5 h
[10] = male, Sprague-Dawley, rat, s9, 1 h

Concentration (μM) of analyte PEA, 0 min (both, human, 0 min): 0.20 µM | Concentration (μM) of analyte PEA, 10 min (both, human, 10 min): 0.32 µM | Concentration (μM) of analyte PEA, 20 min (both, human, 20 min): 0.17 µM | Concentration (μM) of analyte PEA, 30 min (both, human, 30 min): 0.13 µM | Concentration (μM) of analyte PEA, 60 min (both, human, 60 min): 0.042 µM | % Remaining of Initial (n = 1), 0 min (both, human, s9, 0 h): 100% | % Remaining of Initial (n = 1), 10 min (both, human, s9, 10 min): 1.9% | % Remaining of Initial (n = 1), 20 min (both, human, s9, 20 min): <1.0% | % Remaining of Initial (n = 1), 30 min (both, human, s9, 0.5 h): <1.0% | % Remaining of Initial (n = 1), 60 min (both, human, s9, 1 h): <1.0% | Concentration (μM) of analyte PEA, 0 min (male, Beagle, dog, 0 min): 0.21 µM | Concentration (μM) of analyte PEA, 10 min (male, Beagle, dog, 10 min): 0.16 µM | Concentration (μM) of analyte PEA, 20 min (male, Beagle, dog, 20 min): 0.15 µM | Concentration (μM) of analyte PEA, 30 min (male, Beagle, dog, 30 min): 0.12 µM | Concentration (μM) of analyte PEA, 60 min (male, Beagle, dog, 60 min): 0.049 µM | % Remaining of Initial (n = 1), 0 min (male, Beagle, dog, s9, 0 h): 100% | % Remaining of Initial (n = 1), 10 min (male, Beagle, dog, s9, 10 min): <1.0% | % Remaining of Initial (n = 1), 20 min (male, Beagle, dog, s9, 20 min): <1.0% | % Remaining of Initial (n = 1), 30 min (male, Beagle, dog, s9, 0.5 h): <1.0% | % Remaining of Initial (n = 1), 60 min (male, Beagle, dog, s9, 1 h): <1.0% | half-life at 1 μM (male, Beagle, dog, s9, Half-life (min)): < 1 min | Concentration (μM) of analyte PEA, 0 min (male, CD-1, mouse, 0 min): 0.22 µM | Concentration (μM) of analyte PEA, 10 min (male, CD-1, mouse, 10 min): 0.22 µM | Concentration (μM) of analyte PEA, 20 min (male, CD-1, mouse, 20 min): 0.14 µM | Concentration (μM) of analyte PEA, 30 min (male, CD-1, mouse, 30 min): 0.084 µM | Concentration (μM) of analyte PEA, 60 min (male, CD-1, mouse, 60 min): 0.020 µM | % Remaining of Initial (n = 1), 0 min (male, CD-1, mouse, s9, 0 h): 100% | % Remaining of Initial (n = 1), 10 min (male, CD-1, mouse, s9, 10 min): 1.6% | % Remaining of Initial (n = 1), 20 min (male, CD-1, mouse, s9, 20 min): <1.0% | % Remaining of Initial (n = 1), 30 min (male, CD-1, mouse, s9, 0.5 h): <1.0% | % Remaining of Initial (n = 1), 60 min (male, CD-1, mouse, s9, 1 h): <1.0% | Concentration (μM) of analyte PEA, 0 min [1]: 0.045 µM | Concentration (μM) of analyte PEA, 10 min [2]: 0.15 µM | Concentration (μM) of analyte PEA, 20 min [3]: 0.16 µM | Concentration (μM) of analyte PEA, 30 min [4]: 0.12 µM | Concentration (μM) of analyte PEA, 60 min [5]: 0.039 µM | % Remaining of Initial (n = 1), 0 min [6]: 100% | % Remaining of Initial (n = 1), 10 min [7]: 43% | % Remaining of Initial (n = 1), 20 min [8]: 22% | % Remaining of Initial (n = 1), 30 min [9]: 11% | % Remaining of Initial (n = 1), 60 min [10]: 1.4%
SMILES: CCCCCCCCCCCCCCCC(=O)NCCOC(=O)CCC(=O)OC[C@H]1O[C@@](CO)(O[C@H]2O[C@H](CO)[C@@H](O)[C@H](O)[C@H]2O)[C@@H](O)[C@@H]1O [Compound I-7]

Measured concentration of PEA (analyte) (both, human, 0 min): 0.19 µM | Measured concentration of PEA (analyte) (both, human, 10 min): 0.57 µM | Measured concentration of PEA (analyte) (both, human, 20 min): 0.47 µM | Measured concentration of PEA (analyte) (both, human, 30 min): 0.41 µM | Measured concentration of PEA (analyte) (both, human, 60 min): 0.28 µM | % Remaining of Initial (both, human, s9, 0 h): 100% | % Remaining of Initial (both, human, s9, 10 min): 1.4% | % Remaining of Initial (both, human, s9, 20 min): <1.0% | % Remaining of Initial (both, human, s9, 0.5 h): <1.0% | % Remaining of Initial (both, human, s9, 1 h): <1.0% | half-life at 1 μM (both, human, s9, Half-life): < 10 min | Measured concentration of PEA (analyte) (male, Beagle, dog, 0 min): 0.13 µM | Measured concentration of PEA (analyte) (male, Beagle, dog, 10 min): 0.33 µM | Measured concentration of PEA (analyte) (male, Beagle, dog, 20 min): 0.34 µM | Measured concentration of PEA (analyte) (male, Beagle, dog, 30 min): 0.33 µM | Measured concentration of PEA (analyte) (male, Beagle, dog, 60 min): 0.20 µM | % Remaining of Initial (male, Beagle, dog, s9, 0 h): 100% | % Remaining of Initial (male, Beagle, dog, s9, 10 min): 32% | % Remaining of Initial (male, Beagle, dog, s9, 20 min): 11% | % Remaining of Initial (male, Beagle, dog, s9, 0.5 h): 3.5% | % Remaining of Initial (male, Beagle, dog, s9, 1 h): <1.0% | half-life at 1 μM (male, Beagle, dog, s9, Half-life): < 10 min | Measured concentration of PEA (analyte) (male, CD-1, mouse, 0 min): 0.29 µM | Measured concentration of PEA (analyte) (male, CD-1, mouse, 10 min): 0.50 µM | Measured concentration of PEA (analyte) (male, CD-1, mouse, 20 min): 0.44 µM | Measured concentration of PEA (analyte) (male, CD-1, mouse, 30 min): 0.38 µM | Measured concentration of PEA (analyte) (male, CD-1, mouse, 60 min): 0.37 µM | % Remaining of Initial (male, CD-1, mouse, s9, 0 h): 100% | % Remaining of Initial (male, CD-1, mouse, s9, 10 min): 4.6% | % Remaining of Initial (male, CD-1, mouse, s9, 20 min): 1.0% | % Remaining of Initial (male, CD-1, mouse, s9, 0.5 h): <1.0% | % Remaining of Initial (male, CD-1, mouse, s9, 1 h): <1.0% | half-life at 1 μM (male, CD-1, mouse, s9, Half-life): < 10 min | half-life at 1 μM (male, CD-1, mouse, s9, Half-life, calculated value in parentheses): 2.3 min | Measured concentration of PEA (analyte) [1]: 0.069 µM | Measured concentration of PEA (analyte) [2]: 0.17 µM | Measured concentration of PEA (analyte) [3]: 0.092 µM | Measured concentration of PEA (analyte) [4]: 0.061 µM | Measured concentration of PEA (analyte) [5]: 0.013 µM | % Remaining of Initial [6]: 100% | % Remaining of Initial [7]: 17% | % Remaining of Initial [8]: 2.8% | % Remaining of Initial [9]: <1.0% | % Remaining of Initial [10]: <1.0% | half-life at 1 μM (male, Sprague-Dawley, rat, s9, Half-life): < 10 min | half-life at 1 μM (male, Sprague-Dawley, rat, s9, Half-life, calculated value in parentheses): 3.9 min
SMILES: CCCCCCCCCCCCCCCC(=O)NCCOC(=O)CCC(=O)OC(CO)CO [Compound I-8]
